Test results published in US10316050B2, “PT (IV) complexes containing 4,4′-disubstituted-2,2′-bipyridyl and their use in cancer therapy” (THE BOARD OF REGENTS OF THE NEVADA SYSTEM OF HIGHER …, priority 2014, dated 2019).

Legend:
Assay type in all cases: cell-based, human
A549 cells = experiment: Cell cycle analysis, propidium iodide flow cytometry, A549; details: A549, 25 μM Pt(IV)-4C or 7.5 μM Pt(IV)-5C for 5 hours, analyzed 12 hours post treatment
Description: (§1) FIG. 10 is a series of plots from a cell cycle analysis of A549 cells (top) and DU145 cells (bottom) cells treated with Pt(IV)-4C and Pt(IV)-5C. A549 cells were treated for 5 hours with control (left), 25 μM Pt(IV)-4C (center), or 7.5 μM Pt(IV)-5C (right), and analyzed 12 hours post treatment. DU145 cells were treated for 1 hour with control (left), 10 μM Pt(IV)-4C (center), or 2.5 μM Pt(IV)-5C (right), and analyzed 12 hours post treatment. Data are representative of three independent experiments.
(§2) Cells (˜50 to 60% confluent in 60 mm dishes) were treated as indicated with the platinum compound. After treatment, the floating cells were collected, and both attached and floating cells were washed 2× with PBS. The cells were resuspended in fresh medium and incubated as indicated. The cells were harvested (both the floating and attached cells were collected), counted, and pelleted. The cells were then washed two times with 5 mL PBS, fixed by resuspending in 0.1 mL of PBS and 1 mL of ice-cold 95% ethanol with gentle vortexing. Fixed cells were stored at 4° C. until analysis. For analysis, fixed cells were washed once with 1-2 mL of PBS and centrifuged at 500×g for 5 minutes. The cell pellet was resuspended in 100 μL of a 1.0% Triton X-100 buffer solution, and 100 μL of a 1.0 mg/mL RNAse solution was added and allowed to stand at room temperature for 10-15 minutes. […]

[1] = test system: cleaved-PARP in DU145 cells; experiment: Flow cytometry of cleaved-PARP, DU145; details: DU145, 10 μM Pt(IV)-4C or 2.5 μM Pt(IV)-5C for 2 hours, analyzed seven hours post treatment
Description: FIG. 12 is a series of histograms indicating Pt(IV)-4C and Pt(IV)-5C-induced cleavage of PARP in A549 cells (top panels) and in DU145 cells (bottom). A549 cells were treated for 5 hours with control (left), 25 μM Pt(IV)-4C (center), or 7.5 μM Pt(IV)-5C (right), and analyzed 12 hours post treatment. DU145 cells were treated for 2 hours with control (left), 10 μM Pt(IV)-4C (center), or 2.5 μM Pt(IV)-5C (right), and analyzed seven hours post treatment. Data are representative of three independent experiments.
(§3) Cells (200,000 to 250,000) were seeded in 60 mm dishes and incubated at 37° C. in a humidified, 5% CO2 atmosphere for 2 days to reach ˜50-60% confluence. The cells were treated with the platinum complexes as indicated, the floating cells were collected, and both attached and floating cells were washed 2× with PBS. The cells were resuspended in fresh medium and incubated as indicated. After incubation, both the floating and attached cells were collected and fixed by incubation in 4% formaldehyde for 10 minutes at room temperature. The fixed cells were pelleted and permeabilized by incubation in 500 μL of ice-cold methanol at 4° C. for 10 minutes. The samples were stored at −20° C. until analysis. For analysis, the cells were pelleted and washed 2× with 1% BSA in PBS. […] After washing 2× with 1% BSA, the cells were resuspended in PBS and analyzed on a Becton Dickinson FACS Calibur. […]

DU145 cells = experiment: Cell cycle analysis, propidium iodide flow cytometry, DU145; details: DU145, 10 μM Pt(IV)-4C or 2.5 μM Pt(IV)-5C for 1 hour, analyzed 12 hours post treatment
Description: as §1, §2

[2] = test system: phosphorylated H2AX (γH2AX) in A549 cells; experiment: Flow cytometry of phosphorylated H2AX, A549; details: A549, 25 μM Pt(IV)-4C or 7.5 μM Pt(IV)-5C for 6 hours, analyzed 12 hours post treatment
Description: FIG. 9 is a series of graphs plotting Pt(IV) complex-induced phosphorylation of H2AX in A549 cells (top panels) and DU145 cells (bottom panels). A549 cells were treated with control (left), 25 μM Pt(IV)-4C (center), or 7.5 μM Pt(IV)-5C (right) for 6 hours, and analyzed 12 hours post treatment. DU145 cells were treated for 2 hours with control (left), 10 μM Pt(IV)-4C (center), or 2.5 μM Pt(IV)-5C (right), and analyzed 7 hours post treatment. Data are representative of three independent experiments.
as §3

With CC(=O)[O][Pt]([Cl])([Cl])[O]C(C)=O.CCCCCOc1ccnc(-c2cc(OCCCCC)ccn2)c1 [Pt(IV)-5C, [Pt(IV)Cl2(OAc)2(4,4′-dipentoxy-2,2′-bipyridine)]] the “effect on the cell cycle / sub-G1 peak” value (A549 cells) was “decreased percentage of cells in the G1 phase and a corresponding increase in the sub-G1 peak”, the “fold increase of cleaved-PARP” value [1] was roughly 2 fold and the “effect on the cell cycle / sub-G1 peak” value (DU145 cells) was “did not affect the cell cycle”. The “level of phosphorylated H2AX (γH2AX)” value [2] was “increase of γH2AX”.

With “[Pt(IV)Cl2(OAc)2(4,4′-dibutoxy-2,2′-bipyridine)] [Pt(IV)-4C]” the “effect on the cell cycle / sub-G1 peak” value (A549 cells) was “decreased percentage of cells in the G1 phase and a corresponding increase in the sub-G1 peak”, the “fold increase of cleaved-PARP” value [1] was roughly 2 fold and the “effect on the cell cycle / sub-G1 peak” value (DU145 cells) was “did not affect the cell cycle”. The “level of phosphorylated H2AX (γH2AX)” value [2] was “increase of γH2AX”.
